4 compounds from patent publication US20170290814A1, “METHODS OF TREATMENT OF CHOLESTASIS AND FIBROSIS” (GENFIT, priority 2016, published 2017) can be followed below.

The subject of the assay is TGFβ1-induced expression of α-SMA protein in human HSC. As to the kind of experiment: α-SMA ELISA in TGFβ1-activated human hepatic stellate cells. The format is cell-based. The settings on record: [Cpd] = 3 μM, 1 h preincubation, TGFβ1 1 ng/ml, 48 h. As for the experimental part:
Serum-deprived HSC were preincubated for 1 hour with RM-5061 before the activation with the profibrogenic cytokine TGFβ1 (1 ng/ml). After 48 hours of incubation, the α-SMA content was measured by ELISA. The obtained values were transformed into percentage inhibition over TGFβ1 control. Data are presented as mean (quadruplicates)±standard error of the mean (SEM). Statistical analyses were performed by one-way ANOVA followed by Bonferroni post-hoc tests, using Sigma Plot 11.0 software. [*: p<0.05; **: p<0.01; ***: p<0.001 (comparison versus TGFβ1 1 ng/mL group)]. The curve fitting and the calculation of half maximal inhibitory concentration (IC50) were performed with XLFit software 5.3.1.3.
Serum-deprived HSC were preincubated for 1 hour with Cpd.5 before the activation with the profibrogenic cytokine TGFβ1 (1 ng/ml). After 48 hours of incubation, the expression of α-SMA was measured by ELISA. The obtained values were transformed into percentage inhibition over TGFβ1 control. Data are presented as mean (triplicates)±standard deviation (SD). Statistical analyses were performed by one-way ANOVA followed by Bonferroni post-hoc tests, using Sigma Plot 11.0 software. [*: p<0.05; **: p<0.01; ***: p<0.001 (comparison versus TGFμ1 1 ng/mL group)]. The curve fitting and the calculation of half maximal inhibitory concentration (IC50) were performed with XLFit software 5.3.1.3.
The human primary hepatic stellate cells (hHSC) (Innoprot) were cultured in STeCM medium (ScienCell cat #5301) that was supplemented with 2% fetal bovine serum (FBS, ScienCell cat #0010), 1% penicillin/streptomycin (ScienCell cat #0503) and stellate cell growth supplement (SteCGS; ScienCell cat #5352). Cell culture flasks were coated with Poly-L Lysine (Sigma cat #P4707) for a better adherence.
The human primary hepatic stellate cells (hHSC) (Innoprot) were cultured under standard conditions, as described above. The cells were subsequently plated at a density of 2×10^4cells/well or 6,5×10^3 cells/well into 96-well or 384-well plates respectively. The next day, cell-culture medium was removed, and cells were washed with PBS (Invitrogen cat #14190). Then, hHSC were deprived for 24 hours in serum-free and SteCGS-free medium. For the treatments with compounds of formula (I), the serum-deprived hHSC were preincubated for 1 hour with the compounds followed by addition of the profibrogenic stimuli TGFβ1 (PeproTech cat #100-21, 1 ng/mL) in serum-free and SteCGS-free medium for an additional 48 hour period. At the end of treatment, the cell culture supernatants of treated-HSC were transferred into a new plate before storage at −20° C.The cells were washed with PBS (Invitrogen, cat #14190) before the addition of lysis buffer (CelLytic™ MT reagent; Sigma #C3228). Plates were then incubated for 30 min on ice using a plate shaker, before storage at −20° C.
The level of α-SMA was measured using a Sandwich ELISA. Briefly, the wells of an ELISA plate were first coated with the capture antibody (mouse monoclonal anti-ACTA2, Abnova) at 4° C. overnight. After 3 washes in PBS +0.2% Tween 20, a blocking solution consisting of PBS +0.2% BSA was added for one hour followed by another washing cycle. The cell lysates were transferred into the wells for binding to the capture antibody for a period of 2 h at room temperature. After the washing procedure, the detection antibody (biotinylated mouse monoclonal anti-ACTA2, Abnova) was added for 2 hours at room temperature followed by 3 washes. For the detection, an HRP-conjugated Streptavidin (R&D Systems cat #DY998) was first applied for 30 min at room temperature. After washing, the HRP substrate TMB (;BD, #555214) was added and incubated for 7 min at room temperature in the dark. Upon oxidation, TMB forms a water-soluble blue reaction product that becomes yellow with addition of sulfuric acid (solution stop), enabling accurate measurement of the intensity at 450 nm using a spectrophotometer. […]
(In general: An ELISA detects its analyte on a solid surface through an enzyme-linked reagent.)
Turning to `O=C(O)c1ccccc1-c1ccccc1C(=O)Nc1nc2ccccc2s1` [Cpd1, 2′-(benzo[d]thiazol-2-ylcarbamoyl)-[1,1′-biphenyl]-2-carboxylic acid], the “% I over TGFβ (α-SMA)” value came to 40%.
Next, `COc1ccccc1C(=O)Nc1nc(-c2cccs2)c(NC(=O)c2ccccc2)s1` [Cpd2, N-(5-benzamido-4-(thiophen-2-yl)-1,3-thiazol-2-yl)-2-methoxybenzamide]: 43%.
Then `O=C(Nc1nc(-c2ccc3ccccc3c2)cs1)c1cc([N+](=O)[O-])ccc1Cl` [Cpd4, 2-chloro-N-[4-(2-naphthyl)-1,3-thiazol-2-yl]-5-nitrobenzamide], with 53%.
In the case of `Cc1sc(NC(=O)c2c(F)cccc2F)nc1-c1ccccc1` [Cpd3, 2,6-difluoro-N-(5-methyl-4-phenyl-1,3-thiazol-2-yl)benzamide], the “% I over TGFβ (α-SMA)” value came to 48%.
